Reference: US20100029643A1 (ASTRAZENECA AB, priority 2006, published 2010)

Biological target: T1, Edg-1/S1P1 receptor (Homo sapiens, UniProt P21453)
T1 construct: expressed in transfected cells; host or cells: human osteogenic sarcoma U2OS cells: Edg-1 Transfluor U2OS WT Clone #37 (assay I), Edg-1 Transfluor U2OS Clone #3 (assay II)
Experiment: In vitro cell based receptor activation assay - Transfluor assay (assay I or II; beta-arrestin GFP relocalization after S1P stimulation)
Details: at 3.50 μM (titrated from top concentration 10 μM)
Outline: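 U2OS cells overexpressing S1P1 with a beta-arrestin-GFP construct were pre-incubated with compound for 15 min at room temperature, then stimulated with S1P for 45 min at 37 °C. In assay I, final S1P was 375 nM or 750 nM and compound was a 9-point 3-fold series from 100 μM, in 1% DMSO. Cells were fixed and Hoechst-stained, GFP relocalization was imaged, and EC50 values were fitted.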

T1 sequence (P21453 whole entry): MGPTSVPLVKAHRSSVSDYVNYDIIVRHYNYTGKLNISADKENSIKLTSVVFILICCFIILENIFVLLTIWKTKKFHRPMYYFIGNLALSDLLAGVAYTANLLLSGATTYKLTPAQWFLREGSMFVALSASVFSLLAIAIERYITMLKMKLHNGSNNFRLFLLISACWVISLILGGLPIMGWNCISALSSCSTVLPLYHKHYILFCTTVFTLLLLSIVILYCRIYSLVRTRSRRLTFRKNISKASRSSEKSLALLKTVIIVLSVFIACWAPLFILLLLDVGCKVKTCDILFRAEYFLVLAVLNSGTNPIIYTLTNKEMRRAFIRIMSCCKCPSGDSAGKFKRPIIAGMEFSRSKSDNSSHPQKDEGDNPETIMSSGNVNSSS

inhibition at 3.5 µM [%] | SMILES
36.3 | CCn1c(C(C)(C)NS(=O)(=O)c2ccc(C#N)cc2)nc2ncccc21 [Example 176, 4-Cyano-N-[1-(1-ethyl-1H-imidazo[4,.5-b]pyridin-2-yl)-1-methylethyl] benzenesulfonamide]
3.55 | CCn1c(C(C)(C)NS(=O)(=O)c2ccc(C#N)nc2)nc2ncccc21 [Example 177, 6-cyano-N-(2-(1-ethyl-1H-imidazo[4,5-b]pyridin-2-yl)propan-2-yl)pyridine-3-sulfonamide]
8.27 | CCn1c(C(C)(C)NS(=O)(=O)c2ccc(C(N)=O)nc2)nc2ncccc21 [Example 178, 5-({[1-(1-Ethyl-1H-imidazo[4,5-b]pyridin-2-yl)-1-methylethyl]amino}sulfonyl)pyridine-2-carboxamide]
65 | CCn1c(C(C)(C)NS(=O)(=O)c2ccc(C#N)cc2)nc2cnc(C3CC3)cc21 [Example 185, 4-Cyano-N-[1-(6-cyclopropyl-1-ethyl-1H-imidazo[4,5-c]pyridin-2-yl)-1-methyl-ethyl]-benzenesulfonamide]

The next lines start with the molecule.

SMILES | inhibition at 3.5 µM [%]
CCn1c([C@@H](C)NS(=O)(=O)c2ccc(C(N)=O)nc2)nc2cnc(C3CC3)cc21 [Example 174, 5-[1-(6-Cyclopropyl-1-ethyl-1H-imidazo[4,5-c]pyridin-2-yl)-ethylsulfamoyl]-pyridine-2-carboxylic acid amide] | 87.8
CCn1c([C@@H](C)NS(=O)(=O)c2ccc(F)cc2)nc2ncc(C(F)(F)F)cc21 [Example 179, N-{(1R)-1-[1-Ethyl-6-(trifluoromethyl)-1H-imidazo[4,5-b]pyridin-2-yl]ethyl}-4-fluorobenzene sulfonamide] | 90.5
CCn1c([C@@H](C)NS(=O)(=O)c2ccc(C#N)cc2)nc2ncc(C(F)(F)F)cc21 [Example 180, 4-Cyano-N-{(1R)-1-[1-ethyl-6-(trifluoromethyl)-1H-imidazo[4,5-b]pyridin-2-yl]ethyl}benzenesulfonamide] | 91.1
CCn1c([C@@H](C)NS(=O)(=O)c2ccc(C#N)nc2)nc2ncc(C(F)(F)F)cc21 [Example 181, 6-Cyano-N-{(1R)-1-[1-ethyl-6-(trifluoromethyl)-1H-imidazo[4,5-b]pyridin-2-yl]ethyl}pyridine-3-sulfonamide] | 90.6
CCn1c([C@@H](C)NS(=O)(=O)c2ccc(NC)nc2)nc2ccc(C(F)(F)F)cc21 [Example 182, N-{(1R)-1-[1-Ethyl-6-(trifluoromethyl)-1H-benzimidazol-2-yl]ethyl}-6-(methylamino)pyridine-3-sulfonamide] | 92.5
CCn1c(C(C)(C)NS(=O)(=O)c2ccc(F)cc2)nc2cnc(C3CC3)cc21 [Example 186, 4-Fluoro-N-[1-(6-cyclopropyl-1-ethyl-1H-imidazo[4,5-c]pyridin-2-yl)-1-methyl-ethyl]-benzenesulfonamide] | 56.5
CCn1c([C@@H](C)NS(=O)(=O)c2cccn2C)nc2ccc(C(F)(F)F)cc21 [Example 187, (R)—N-(1-(1-Ethyl-6-(trifluoromethyl)-1H-benzo[d]imidazol-2-yl)ethyl)-1-methyl-1H-pyrrole-2-sulfonamide] | 86.2
